The nature of data set [1]: Solubility in water of the salt forms of Compound 1. The class given is physicochemical. The conditions noted are these: for Native pH: pH of the aqueous solubility sample.
A short description of a further data set: Hygroscopicity (25° C.). The class given is physicochemical. The conditions noted are these: up to 80% RH.
Data set [2] is described as follows: Chemical and physical stability at 40° C./75% relative humidity. The class given is physicochemical. The conditions noted are these: 6 Months at 40° C./75% relative humidity (RH).
In another data set the target is human c-Met (Homo sapiens, UniProt P08581). Kind of data set: biochemical.
human c-Met, sequence (P08581 956-1390 limits assumed): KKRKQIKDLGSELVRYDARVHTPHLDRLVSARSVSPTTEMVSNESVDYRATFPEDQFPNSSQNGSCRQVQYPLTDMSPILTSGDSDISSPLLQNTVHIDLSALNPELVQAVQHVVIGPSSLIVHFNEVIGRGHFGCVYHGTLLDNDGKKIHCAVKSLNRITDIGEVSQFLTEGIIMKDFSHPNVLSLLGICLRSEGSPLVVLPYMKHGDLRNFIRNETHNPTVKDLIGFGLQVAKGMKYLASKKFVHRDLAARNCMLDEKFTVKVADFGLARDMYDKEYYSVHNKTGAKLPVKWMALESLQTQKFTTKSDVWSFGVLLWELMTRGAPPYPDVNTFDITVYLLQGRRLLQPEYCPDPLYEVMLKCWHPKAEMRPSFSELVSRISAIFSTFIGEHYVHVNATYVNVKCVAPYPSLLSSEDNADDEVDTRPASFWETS
Where [3] appears, read: listed as Crystalline potassium salt, potassium salt monohydrate.
The mark [4] stands for this setting: listed as Crystalline Sodium salt, sodium salt dihydrate.

SMILES strings stand for the structures. Where a name gives a salt, the structure may show the parent alone. A value given as a limit tells only on which side of the number the result lay.

Description for human c-Met: The procedure for determining the potency of a compound to inhibit c-Met kinase comprises the following steps: • 1. Prepare 3-fold serial diluted compound solutions in 100% dimethyl sulfoxide (DMSO) at 20× of the desired final concentrations in a 96 well plate. • 2. […] In a black assay plate, add 2.5 μl of compound solution (or DMSO) and 37.5 μl of master reaction mix per well. Initiate the kinase reaction by adding 10 μl of 0.25 mM MgATP per well. Allow the reactions to proceed for 80 min at room temperature. The final conditions for the reaction are 0.2 nM c-Met, 0.5 μM substrate, 50 μM MgATP, 5 mM MgCl2, 100 mM NaCl, 2 mM DTT, 0.1 mg/ml BSA, 50 mM Tris (pH 7.4) and 5% DMSO. • 4. […] Read HTRF signals on a Victor reader (PerkinElmer) in HTRF mode after 60 min. • 6.

`CN(C[C@@H]1COCCO1)S(=O)(=O)Nc1ccc2ccc3ncc(-c4cnn(C)c4)cc3c(=O)c2c1` [Compound 1 potassium salt monohydrate, N-[(2R)-1,4-dioxan-2-ylmethyl]-N-methyl-N′-[3-(1-methyl-1H-pyrazol-4-yl)-5-oxo-5H-benzo[4,5]cyclohepta[1,2-b]pyridin-7-yl]sulfamide potassium salt monohydrate]: in data set [1] (setting [3]), the “Native pH” value is “pH = 10.7” and the Solubility in water was more than 170 mg/mL. The “Hygroscopicity (25° C.)” value in “Hygroscopicity (25° C.)” (setting [3]) was 0.81% up.

Consider `CN(C[C@@H]1COCCO1)S(=O)(=O)Nc1ccc2ccc3ncc(-c4cnn(C)c4)cc3c(=O)c2c1` [Compound 1 sodium salt dihydrate, N-[(2R)-1,4-dioxan-2-ylmethyl]-N-methyl-N′-[3-(1-methyl-1H-pyrazol-4-yl)-5-oxo-5H-benzo[4,5]cyclohepta[1,2-b]pyridin-7-yl]sulfamide sodium salt dihydrate], for which, in data set [1] (setting [4]), the “Native pH” value is “pH = 10.5” and the Solubility in water is on record as more than 400 mg/mL. Also, the “Hygroscopicity (25° C.)” value in the data set “Hygroscopicity (25° C.)” (setting [4]) worked out at 0.14% up. In data set [2], the “chemical and physical stability” value was “chemically and physically stable”.

As for `CN(C[C@@H]1COCCO1)S(=O)(=O)Nc1ccc2ccc3ncc(-c4cnn(C)c4)cc3c(=O)c2c1` [Compound 1, N-[(2R)-1,4-dioxan-2-ylmethyl]-N-methyl-N′-[3-(1-methyl-1H-pyrazol-4-yl)-5-oxo-5H-benzo[4,5]cyclohepta[1,2-b]pyridin-7-yl]sulfamide], the IC50 at human c-Met was not below 50 µM. In data set [1] (listed as Free Acid), the Solubility in water is reported as 0.003 mg/mL. Also, in the data set “Hygroscopicity (25° C.)” (listed as Free Acid), the “Hygroscopicity (25° C.)” value is given as 0.4% up to.
